Values joined by “and” are separate entries in the source; they are usually repeats but may differ in a detail not shown here. Equal values may be shown once.
Tested on: 349418-098-R tumor spheroid viability
Experiment: Anticancer human tumor 349418-098-R patient-derived lung adenocarcinoma cell line growth inhibition
Details: spheroids with HUVEC and MSC; for viability, T/C: stronger effect = lower value
Outline: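 Complex tumor spheroids combined malignant cells with endothelial cells and mesenchymal stem cells. DNA-damaging drugs and DNA repair inhibitors were tested alone and in combination, at half-log dilutions down from clinical Cmax (top 10 microM if Cmax unknown), 0.25% DMSO final.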

[1] = curve of first compound, second compound 0.003 µM
[2] = curve of first compound, second compound 0.00949 µM
[3] = curve of first compound, second compound 0.03 µM
[4] = curve of first compound, second compound 0.0949 µM
[5] = curve of first compound, second compound 0.3 µM
[6] = second compound 0.003 µM, first compound 0.0316 µM
[7] = second compound 0.003 µM, first compound 0.1 µM
[8] = second compound 0.003 µM, first compound 0.316 µM
[9] = second compound 0.003 µM, first compound 1 µM
[10] = second compound 0.003 µM, first compound 3.16 µM
[11] = second compound 0.003 µM, first compound 10 µM
[12] = second compound 0.00949 µM, first compound 0.0316 µM
[13] = second compound 0.00949 µM, first compound 0.1 µM
[14] = second compound 0.00949 µM, first compound 0.316 µM
[15] = second compound 0.00949 µM, first compound 1 µM
[16] = second compound 0.00949 µM, first compound 3.16 µM
[17] = second compound 0.00949 µM, first compound 10 µM
[18] = second compound 0.03 µM, first compound 0.0316 µM
[19] = second compound 0.03 µM, first compound 0.1 µM
[20] = second compound 0.03 µM, first compound 0.316 µM
[21] = second compound 0.03 µM, first compound 1 µM
[22] = second compound 0.03 µM, first compound 3.16 µM
[23] = second compound 0.03 µM, first compound 10 µM
[24] = second compound 0.0949 µM, first compound 0.0316 µM
[25] = second compound 0.0949 µM, first compound 0.1 µM
[26] = second compound 0.0949 µM, first compound 0.316 µM
[27] = second compound 0.0949 µM, first compound 1 µM
[28] = second compound 0.0949 µM, first compound 3.16 µM
[29] = second compound 0.0949 µM, first compound 10 µM
[30] = second compound 0.3 µM, first compound 0.0316 µM
[31] = second compound 0.3 µM, first compound 0.1 µM
[32] = second compound 0.3 µM, first compound 0.316 µM
[33] = second compound 0.3 µM, first compound 1 µM
[34] = second compound 0.3 µM, first compound 3.16 µM
[35] = second compound 0.3 µM, first compound 10 µM
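Note: spheroids exposed to compound for 7 days before measurement.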
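Throughout, for viability, T/C: percent of vehicle control viability with 100% = DMSO-treated spheroids.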

## COc1ccc([C@@H](O)c2cc(-c3ncnc4cc(N5CCOCC5)ccc34)c(F)cc2Cl)nn1 + CC[C@@]1(O)C(=O)OCc2c1cc1n(c2=O)Cc2cc3c(CN(C)C)c(O)ccc3nc2-1
[1]
  IC50: 7.87 µM
[2]
  IC50: 6.18 µM
[3]
  IC50: 0.679 µM
[4]
  IC50: < 0.0316 µM
[5]
  IC50: < 0.0316 µM
[6]
  viability, T/C: 103%
[7]
  viability, T/C: 107%
[8]
  viability, T/C: 106%
[9]
  viability, T/C: 106%
[10]
  viability, T/C: 89.2%
[11]
  viability, T/C: 39%
[12]
  viability, T/C: 90.1%
[13]
  viability, T/C: 102%
[14]
  viability, T/C: 106%
[15]
  viability, T/C: 102%
[16]
  viability, T/C: 82.8%
[17]
  viability, T/C: 26.5%
[18]
  viability, T/C: 69.8%
[19]
  viability, T/C: 78.5%
[20]
  viability, T/C: 60.4%
[21]
  viability, T/C: 43.9%
[22]
  viability, T/C: 26.1%
[23]
  viability, T/C: 18.9%
[24]
  viability, T/C: 18.4%
[25]
  viability, T/C: 11.6%
[26]
  viability, T/C: 14.2%
[27]
  viability, T/C: 13.7%
[28]
  viability, T/C: 11.4%
[29]
  viability, T/C: 9.78%
[30]
  viability, T/C: 4.47%
[31]
  viability, T/C: 3.97%
[32]
  viability, T/C: 4.59%
[33]
  viability, T/C: 4.78%
[34]
  viability, T/C: 4.77%
[35]
  viability, T/C: 3.94%

## CNCc1ccc(-c2cc(-c3nc(-c4ccc(S(=O)(=O)C(C)C)cc4)cnc3N)on2)cc1
Compound 0.00949 µM
  viability, T/C: 99.8% and 99.6% and 96.2%
Compound 0.03 µM
  viability, T/C: 104% and 99.5% and 92.1%
Compound 0.0949 µM
  viability, T/C: 94.8% and 98.9% and 94.1%
Compound 0.3 µM
  viability, T/C: 71.1% and 34.7% and 85.6%
Compound 0.949 µM
  viability, T/C: 8.67% and 9.93% and 16.6%
Compound 3 µM
  viability, T/C: 2.53% and 1.43% and 6.14%
Curve of compound
  IC50: 0.442 µM and 0.228 µM and 0.544 µM

## COc1cc(C)[nH]c(=O)c1CN1CCc2c(Cl)cc(C(OC)C3COC3)c(Cl)c2C1=O (stereo not given)
Compound 0.0316 µM
  viability, T/C: 113% and 98.1% and 118%
Compound 0.1 µM
  viability, T/C: 115% and 96.7% and 122%
Compound 0.316 µM
  viability, T/C: 108% and 91.9% and 112%
Compound 1 µM
  viability, T/C: 104% and 92% and 112%
Compound 3.16 µM
  viability, T/C: 101% and 79.7% and 118%
Compound 10 µM
  viability, T/C: 96.4% and 83.6% and 103%
Curve of compound
  IC50: > 10 µM

## Cc1sc2c(c1C)C(c1ccc(Cl)cc1)=NC(CC(=O)Nc1ccc(O)cc1)c1nnc(C)n1-2 (stereo not given)
Compound 0.00949 µM
  viability, T/C: 99.1% and 96.4% and 100%
Compound 0.03 µM
  viability, T/C: 101% and 90.4% and 111%
Compound 0.0949 µM
  viability, T/C: 73% and 49% and 66.3%
Compound 0.3 µM
  viability, T/C: 13.4% and 14.2% and 11.2%
Compound 0.949 µM
  viability, T/C: 1.66% and 1.1% and 1.46%
Compound 3 µM
  viability, T/C: 0.54% and 0.67% and 1%
Curve of compound
  IC50: 0.148 µM and 0.0965 µM and 0.134 µM

## CC(C)n1c(=O)n(C)c2cnc3cc(F)c(-c4ccc(OCCCN5CCCCC5)nc4)cc3c21 + CC[C@@]1(O)C(=O)OCc2c1cc1n(c2=O)Cc2cc3c(CN(C)C)c(O)ccc3nc2-1
[1]
  IC50: > 10 µM
[2]
  IC50: 4.93 µM
[3]
  IC50: < 0.0316 µM
[4]
  IC50: < 0.0316 µM
[5]
  IC50: < 0.0316 µM
[6]
  viability, T/C: 96.9%
[7]
  viability, T/C: 93.2%
[8]
  viability, T/C: 93.8%
[9]
  viability, T/C: 99.6%
[10]
  viability, T/C: 100%
[11]
  viability, T/C: 63.9%
[12]
  viability, T/C: 67.6%
[13]
  viability, T/C: 69.3%
[14]
  viability, T/C: 66.2%
[15]
  viability, T/C: 67.7%
[16]
  viability, T/C: 63.4%
[17]
  viability, T/C: 28.7%
[18]
  viability, T/C: 24.3%
[19]
  viability, T/C: 22%
[20]
  viability, T/C: 22.2%
[21]
  viability, T/C: 22.7%
[22]
  viability, T/C: 27.8%
[23]
  viability, T/C: 17%
[24]
  viability, T/C: 7.03%
[25]
  viability, T/C: 9.49%
[26]
  viability, T/C: 9.54%
[27]
  viability, T/C: 9.81%
[28]
  viability, T/C: 11.7%
[29]
  viability, T/C: 12.4%
[30]
  viability, T/C: 5.01%
[31]
  viability, T/C: 4.88%
[32]
  viability, T/C: 5.74%
[33]
  viability, T/C: 6.26%
[34]
  viability, T/C: 8.16%
[35]
  viability, T/C: 8.82%

## Cn1ncnc1[C@H]1c2n[nH]c(=O)c3cc(F)cc(c23)N[C@@H]1c1ccc(F)cc1
Compound 0.00949 µM
  viability, T/C: 98.5% and 97% and 84.1%
Compound 0.03 µM
  viability, T/C: 96.8% and 96.3% and 103%
Compound 0.0949 µM
  viability, T/C: 95.9% and 95.6% and 97.9%
Compound 0.3 µM
  viability, T/C: 92.7% and 92.3% and 93.1%
Compound 0.949 µM
  viability, T/C: 93.1% and 85% and 89.9%
Compound 3 µM
  viability, T/C: 9.44% and 11.2% and 10.9%
Curve of compound
  IC50: 1.72 µM and 1.64 µM and 1.7 µM

## Cc1cc(C)c(CNC(=O)c2cc(-c3ccc(CN4CCOCC4)cc3)cc3c2cnn3C2CCCC2)c(=O)[nH]1
Compound 0.0316 µM
  viability, T/C: 99.9% and 101% and 92.4%
Compound 0.1 µM
  viability, T/C: 118% and 95.5% and 100%
Compound 0.316 µM
  viability, T/C: 111% and 98.5% and 101%
Compound 1 µM
  viability, T/C: 109% and 97% and 96.8%
Compound 3.16 µM
  viability, T/C: 126% and 87.5% and 87.7%
Compound 10 µM
  viability, T/C: 75.6% and 33.3% and 40.8%
Curve of compound
  IC50: > 10 µM and 7.02 µM and 7.99 µM

From PubChem BioAssay AID1845197 (Molecular Pharmacology Branch, DTP, NCI, 2023)
